What was measured:
delta opioid receptor = molecular target: T1, delta opioid receptor (Rattus norvegicus, UniProt P33533); assay: Rat Brain Delta Opioid Receptor Binding Assay; details: rat forebrain membranes; [3H]DPDPE or [3H]naltrindole, 25° C., 2.5 h
T1 construct: from tissue; host or cells: Forebrain of male Wistar rats, particulate membrane preparation

mu opioid receptor = molecular target: T2, mu opioid receptor (Rattus norvegicus, UniProt P33535); assay: Rat Brain Mu Opioid Receptor Binding Assay; details: rat forebrain membranes; [3H]DAMGO, 25° C., 2.5 h
T2 construct: from tissue; host or cells: Forebrain of male Wistar rats, particulate membrane preparation

[1] = molecular target: T3, delta opioid receptor (NG108-15 cell membranes) (Mus musculus, UniProt P32300); assay: [35S]GTPγS Binding Assay in NG108-15 Cell Membranes (Delta Opioid); format: biochemical
T3 construct: NG108-15 cell membranes were purchased from Applied Cell Sciences (Rockville, Md.); host or cells: NG108-15 cell membranes (purchased)

[2] = molecular target: hMOR (CHO-hMOR cell membranes) (Homo sapiens, UniProt P35372); assay: [35S]GTPγS Binding Assays in CHO-hMOR Cell Membranes; format: biochemical; details: read-out: mu GTPγS EC50
Chain of hMOR (CHO-hMOR cell membranes) (P35372 whole entry): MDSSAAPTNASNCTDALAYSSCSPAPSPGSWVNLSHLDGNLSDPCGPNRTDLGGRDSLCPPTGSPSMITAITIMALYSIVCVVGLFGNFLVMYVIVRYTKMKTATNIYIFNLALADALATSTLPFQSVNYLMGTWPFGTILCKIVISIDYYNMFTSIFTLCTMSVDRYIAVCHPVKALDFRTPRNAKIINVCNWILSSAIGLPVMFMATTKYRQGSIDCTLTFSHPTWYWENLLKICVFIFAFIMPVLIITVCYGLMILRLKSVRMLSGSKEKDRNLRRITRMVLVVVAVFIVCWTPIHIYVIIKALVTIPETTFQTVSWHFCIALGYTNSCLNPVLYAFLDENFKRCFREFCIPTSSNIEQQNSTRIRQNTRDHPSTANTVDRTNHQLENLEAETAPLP

T2 sequence (P33535 whole entry): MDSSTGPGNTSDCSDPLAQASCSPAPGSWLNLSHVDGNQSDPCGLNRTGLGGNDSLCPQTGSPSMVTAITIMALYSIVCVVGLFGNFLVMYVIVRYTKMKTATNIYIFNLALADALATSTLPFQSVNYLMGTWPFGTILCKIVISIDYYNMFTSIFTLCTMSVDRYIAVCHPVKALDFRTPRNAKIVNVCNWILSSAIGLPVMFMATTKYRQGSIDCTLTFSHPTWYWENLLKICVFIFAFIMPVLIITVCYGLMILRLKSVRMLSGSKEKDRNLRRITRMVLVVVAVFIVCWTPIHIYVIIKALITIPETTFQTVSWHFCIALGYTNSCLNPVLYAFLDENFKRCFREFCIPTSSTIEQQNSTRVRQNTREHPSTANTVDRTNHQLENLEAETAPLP
T1 sequence (P33533 whole entry): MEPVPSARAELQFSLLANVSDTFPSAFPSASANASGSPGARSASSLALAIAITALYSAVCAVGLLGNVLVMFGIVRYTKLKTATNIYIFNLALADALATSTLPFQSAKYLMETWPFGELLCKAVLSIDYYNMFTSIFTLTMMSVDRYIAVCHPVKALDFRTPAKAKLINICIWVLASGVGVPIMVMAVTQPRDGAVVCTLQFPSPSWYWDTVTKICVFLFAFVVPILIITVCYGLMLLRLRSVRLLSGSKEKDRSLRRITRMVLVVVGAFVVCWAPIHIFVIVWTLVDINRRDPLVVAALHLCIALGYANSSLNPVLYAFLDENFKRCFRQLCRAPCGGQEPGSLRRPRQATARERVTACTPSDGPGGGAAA
T3 sequence (P32300 whole entry): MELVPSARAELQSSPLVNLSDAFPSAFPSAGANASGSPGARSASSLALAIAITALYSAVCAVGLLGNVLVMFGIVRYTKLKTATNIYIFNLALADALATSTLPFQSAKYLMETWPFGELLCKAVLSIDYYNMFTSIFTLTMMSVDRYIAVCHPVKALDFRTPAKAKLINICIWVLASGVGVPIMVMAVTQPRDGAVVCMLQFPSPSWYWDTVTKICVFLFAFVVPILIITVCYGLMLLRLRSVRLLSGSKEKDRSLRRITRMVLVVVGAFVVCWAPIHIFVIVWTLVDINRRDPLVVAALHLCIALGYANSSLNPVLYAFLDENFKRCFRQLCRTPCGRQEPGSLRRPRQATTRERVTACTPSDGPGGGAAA

SMILES	Ki (delta opioid receptor) [nM]	Ki (mu opioid receptor) [nM]	EC50 [1] [nM]	EC50 [2] [nM]
c1ccc(CN2CCC(N3c4ccccc4Oc4cc(-c5ccncc5)ccc43)CC2)nc1 [Compound 5k, 3-Pyridin-4-yl-10-(1-pyridin-2-ylmethyl-piperidin-4-yl)-10H-phenoxazine]	1200	–	–	–
CC(=O)Nc1ccccc1-c1ccc2c(c1)Sc1ccccc1N2C1CCN(Cc2ccccn2)CC1 [Compound 6g, N-{2-[10-(1-Pyridin-2-ylmethyl-piperidin-4-yl)-10H-phenothiazin-3-yl]-phenyl}-acetamide]	255	837	–	–
CCN(CC)C(=O)c1ccc2c(c1)Oc1ccccc1N2C1CCN(Cc2nccs2)CC1 [Compound 9r, 10-(1-Thiazol-2-ylmethyl-piperidin-4-yl)-10H-phenoxazine-3-carboxylic acid diethylamide]	300	–	–	–
c1ccc(CN2CCC(N3c4ccccc4Oc4cc(-c5nnn[nH]5)ccc43)CC2)nc1 [Compound 10a, 10-(1-Pyridin-2-ylmethyl-piperidin-4-yl)-3-(1H-tetrazol-5-yl)-10H-phenoxazine]	227	–	–	–
N#Cc1ccc2c(c1)Oc1ccccc1N2C1CCNCC1 [Compound 11a, 10-Piperidin-4-yl-10H-phenoxazine-3-carbonitrile]	436	5820	1930	> 10000
CC(=O)Nc1ccccc1-c1ccc2c(c1)Oc1ccccc1N2C1CCN(Cc2ncc[nH]2)CC1 [Compound 7j, N-(2-{10-[1-(1H-Imidazol-2-ylmethyl)-piperidin-4-yl]-10H-phenoxazin-3-yl}-phenyl)-acetamide]	249	–	–	–
c1ccc2c(c1)Oc1cc(-c3nnn[nH]3)ccc1N2C1CCN(Cc2ncc[nH]2)CC1 [Compound 7a, 10-[1-(1H-Imidazol-2-ylmethyl)-piperidin-4-yl]-3-(1H-tetrazol-5-yl)-10H-phenoxazine]	655	2770	–	–
CCN(CC)C(=O)c1ccc2c(c1)Oc1ccccc1N2C1CCN(Cc2ccoc2)CC1 [Compound 10r, 10-(1-Furan-3-ylmethyl-piperidin-4-yl)-10H-phenoxazine-3-carboxylic acid diethylamide]	655	–	–	–
Oc1cccc2c1Oc1cc(-c3ccncc3)ccc1N2C1CCNCC1 (single isomer, unassigned) [Compound 4p, 10-Piperidin-4-yl-7-pyridin-4-yl-10H-phenoxazin-4-ol]	535	–	–	–
COc1cccc2c1Oc1cc(-c3ccncc3)ccc1N2C1CCNCC1 (single isomer, unassigned) [Compound 5p, 6-Methoxy-10-piperidin-4-yl-3-pyridin-4-yl-10H-phenoxazine]	589	–	–	–
O=C(c1ccc2c(c1)Oc1ccccc1N2C1CCN(Cc2ccoc2)CC1)N1CC[C@H](O)C1 [Compound 16r, [10-(1-Furan-3-ylmethyl-piperidin-4-yl)-10H-phenoxazin-3-yl]-(3-(S)-Hydroxypyrrolidin-1-yl)-methanone]	189	–	–	–
CC(=O)Nc1ccccc1-c1ccc2c(c1)Oc1ccccc1N2C1CCN(Cc2ccoc2)CC1 [Compound 3j, N-{2-[10-(1-Furan-3-ylmethyl-piperidin-4-yl)-10H-phenoxazin-3-yl]-phenyl}-acetamide]	2280	–	–	–
CCNC(=O)c1ccc2c(c1)Sc1ccccc1N2C1CCN(Cc2cccs2)CC1 [Compound 4m, 10-(1-Thiophen-2-ylmethyl-piperidin-4-yl)-10H-phenothiazine-3-carboxylic acid ethylamide]	784	–	–	–
NC(=O)c1ccc2c(c1)Oc1ccccc1N2C1CCNCC1 [Compound 12a, 10-Piperidin-4-yl-10H-phenoxazine-3-carboxylic Acid amide]	682	1240	9250	> 10000
CC(=O)Nc1ccccc1-c1ccc2c(c1)Oc1ccccc1N2C1CCN(Cc2ccccc2)CC1 [Compound 5h, N-{2-[10-(1-Benzyl-piperidin-4-yl)-10H-phenoxazin-3-yl]-phenyl}-acetamide]	400	3320	–	–
O=C(c1ccc2c(c1)Oc1ccccc1N2C1CCN(Cc2ccccc2)CC1)N1CC[C@H](O)C1 [Compound 13r, [10-(1-Benzyl-piperidin-4-yl)-10H-phenoxazin-3-yl]-(3-(S)-Hydroxypyrrolidin-1-yl)-methanone]	465	–	–	–
O=C(c1ccc2c(c1)Oc1ccccc1N2C1CCN(Cc2ccccn2)CC1)N1CC[C@H](O)C1 [Compound 15r, (3-(S)-Hydroxypyrrolidin-1-yl)-[10-(1-pyridin-2-ylmethyl-piperidin-4-yl)-10H-phenoxazin-3-yl]-methanone]	203	–	–	–
CC(=O)Nc1ccccc1-c1ccc2c(c1)Oc1ccccc1N2C1CCN(Cc2ccccn2)CC1 [Compound 5j, N-{2-[10-(1-Pyridin-2-ylmethyl-piperidin-4-yl)-10H-phenoxazin-3-yl]-phenyl}-acetamide]	576	–	–	–
COc1cccc2c1Oc1cc(C(=O)N(C)C)ccc1N2C1CCN(Cc2ccccc2)CC1 [Compound 5d, 10-(1-Benzyl-piperidin-4-yl)-6-methoxy-10H-phenoxazine-3-carboxylic acid dimethylamide]	374	–	–	–
c1ccc(CN2CCC(N3c4ccccc4Sc4cc(-c5cccnc5)ccc43)CC2)nc1 [Compound 2f, 3-Pyridin-3-yl-10-(1-pyridin-2-ylmethyl-piperidin-4-yl)-10H-phenothiazine]	365	2850	–	–

Reference: patent US7432257B2, “Piperdinyl-phenoxazine and phenothiazine derivatives as δ-opioid modulators” (Janssen Pharmaceutica N.V., priority 2005, dated 2008)
